Measured values reported in patent US20250297300A1, “DETECTION, STAGING, MONITORING AND TREATING A DISEASE OR A CONDITION” (SUNBIRD BIO, INC., priority 2021, published 2025).
Primed or numbered codes have the meaning given here. Where no end group is shown, it is not given here. The star is where a group is joined. 5FAM = O=C1OC2(c3ccc(O)cc3Oc3cc(O)ccc32)c2ccc(C(=O)*)cc21; K(CPQ2) = lysine carrying the CPQ2 quencher; FAM = fluorescent reporter; PEG2′ = not defined here

Assays:
[1] = system: carboxylesterase 1, phospholipase A2 and lipoprotein lipase; experiment: Spiked recombinant enzymes in human plasma with resorufin oleate as substrate; format: biochemical
[2] = system: COVID-related proteases; experiment: Ex vivo FRET probe cleavage in COVID positive vs negative swab samples; format: biochemical
[3] = system: cathepsin and/or MMP protease activities; experiment: Ex vivo FRET probe cleavage in plasma: NASH progression, regression, healthy mice; format: biochemical; conditions: K2EDTA plasma at 20 weeks
From the text: Plasma samples were collected from all animals at 20 weeks.
The probes showing the most differentiation in NASH were linked to cathepsin and/or MMP protease activities.

[4] = target: T1, Granzyme B (Homo sapiens, UniProt P10144); experiment: Inhibition experiments on Probe #647 signal in COVID swab samples; format: biochemical; conditions: healthy vs COVID samples, FIG. 39
T1 construct: from tissue; host or cells: COVID swab samples

[5] = system: caspase activity in hepatitis; experiment: Ex vivo FRET probe cleavage in plasma of Jo2 fulminant hepatitis mice; format: biochemical; conditions: plasma 3 hours after Jo2 injection
Description: Fulminant hepatitis is induced after injection intraperitoneal of monoclonal antibody anti-CD95 (Jo2, BD biosciences, 4 ug/animal), and mouse plasma samples were collected 3 hours after Jo2 injection.

[6] = system: proteases in plasma sensed by Probe #102 (cathepsin L); experiment: Inhibitor profiling of Probe #102 cleavage in NASH and healthy plasma; format: biochemical, mice; conditions: for effect of inhibitor on signal for NASH or healthy samples: Probe #102
Description: For this experiment, all plasma samples were prepared individually and diluted 1/10e in PBS with inhibitor added directly to the samples. Inhibitor was prepared at 15× concentration to final. Substrates were diluted in DI water at 18 uM, such that the final concentration on the plate would be 6 uM. All samples were prepared such that their last dilution on the plate would not affect the desired final concentration. 10 ul of each individual sample was pipetted into their corresponding wells, and the plate was then spun down in the centrifuge at 1500 RPM for 30 seconds to coat the bottom of each well with the sample. 5 ul of the 18 uM substrate solution was pipetted into each well being used on a 384 well plate, and then the plate was spun down in the centrifuge at 1500 rpm for 30 seconds. The plate was placed immediately in the plate reader at 37° C. for a 30-minute-long fluorescence kinetic read at 485/535 extended gain.
To assess the proteolytic cleavage pattern of Probe #102, samples were tested using a pool of broad inhibitors for serine, cysteine, threonine, MMP and aspartic protease family members (broad inhibitor) to assess general protease activity, AEBSF for serine proteases, E64 for cysteine proteases, CTSi for broad cathepsin inhibition of cathepsins L,S,K and B, or specific inhibitors for cathepsin K (L00625), for cathepsin L (SID) or cathepsin B (CA074).

[7] = system: NASH-related proteases; experiment: Ex vivo FRET probe cleavage in K2EDTA plasma of NASH (CDAHFD) vs healthy (CD) mice; format: biochemical; conditions: n=10 and pooled
Description: All animals were used in accordance with animal care guidelines. Plasma was obtained from these blood samples by centrifugation at 3,500 RPM for 20 min at 4° C. The plasma was stored at −80° C. until it was needed for experimental purposes.
Samples were mixed with protease substrates and quenchers/reporters in 96-well plates. The 96-well plates were read on a Biotech Synergy H1, using 465,535 excitation/emission settings.
A single plasma sample was contacted with the probes for each predetermined protease to provide a multiplex assessment of protease activity in the sample.

[8] = system: COVID-related proteases; experiment: Ex vivo FRET probe cleavage in COVID vs healthy K2EDTA and Lithium Heparin plasma; format: biochemical; conditions: K2EDTA and Lithium Heparin plasma sets
[9] = cited from earlier work

T1 sequence (P10144 21-247): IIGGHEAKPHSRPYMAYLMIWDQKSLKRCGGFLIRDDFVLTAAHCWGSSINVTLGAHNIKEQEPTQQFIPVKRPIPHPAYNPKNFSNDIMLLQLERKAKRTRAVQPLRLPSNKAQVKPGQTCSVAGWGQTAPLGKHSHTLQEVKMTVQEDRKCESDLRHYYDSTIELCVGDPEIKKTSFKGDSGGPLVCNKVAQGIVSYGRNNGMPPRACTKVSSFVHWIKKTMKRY

resorufin oleate
suitability as substrate for enzyme detection [1]: promising for detection of broad range of enzymes

Probe #647: Caspase centric probe; signal measures the activity of protease Granzyme B (GAIEPDSGG; also: 5FAM, Lys(CPQ2), PEG2, D-Lys-D-Lys, GC-NH2, places not given here)
number of active samples, COVID+ ([2]; adjusted RFU across timepoints): 7 samples | number of active samples, COVID- ([2]; adjusted RFU across timepoints): 1 samples | differentiation between COVID+ and COVID- samples ([2]; swabs in saline): key differentiator | differentiation among healthy, regression and NASH samples [3]: can differentiate | protease whose activity the probe signal measures [4]: measures the activity of protease Granzyme B | differentiation between healthy and Jo2 samples [5]: show contrast that is specific and sensitive to the Jo2 model

Probe #102: a CTSL sensing probe; FRET peptide probe with fluorescent reporter and quencher ({FAM}-GKPILFFRLKG-{K(CPQ2)-PEG2′-dK-dK-Gly-Cys})
protease to whose activity the probe responds ([6]; from inhibitor experiments, FIG. 30): specifically responds to the activity of cathepsin L (CTSL) | differentiation among healthy, regression and NASH samples [3]: can differentiate | attribution of measured rate of fluorescence increase [7]: can be ascribed to protease activity and to NASH disease

CCCC(=O)O [butyrate]
suitability as substrate for enzyme detection [1]: promising for detection of broad range of enzymes

Probe #96: FRET peptide probe of Table 1 ({FAM}-GRPLALWESQG-{K(CPQ2)-PEG2′-dK-Gly-Cys})
differentiation among healthy, regression and NASH samples [3]: can differentiate

Probe #520: FRET peptide probe of Table 1 (5FAM-GKPISLISSG-{K(CPQ2)-PEG2′-Gly-Cys})
differentiation among healthy, regression and NASH samples [3]: can differentiate

Probe #12: Caspase centric probe (GDEVDGK; not fully specified; 5-FAM, CPQ2 quencher, PEG2, D-Lys-D-Lys-GC)
differentiation between healthy and Jo2 samples [5]: show contrast that is specific and sensitive to the Jo2 model

CC(C)C[C@H](NC(=O)[C@H]1O[C@@H]1C(=O)O)C(=O)NCCCCN=C(N)N [Probe E64, E64]
effect of inhibitor on signal for NASH or healthy samples [6]: decreased NASH signal significantly

CCCNC(=O)[C@H]1O[C@@H]1C(=O)N[C@H](C(=O)N1CCC[C@H]1C(=O)O)[C@@H](C)CC [CA074]
effect of inhibitor on signal for NASH or healthy samples [6]: did not significantly decrease signal

Probe #492: FRET peptide probe of Table 1 ({FAM}-GQRANSIRVTWG-{K(CPQ2)-PEG2′-dK-dK-Gly-Cys})
differentiation among healthy, regression and NASH samples [3]: can differentiate | attribution of measured rate of fluorescence increase [7]: can be ascribed to protease activity and to NASH disease

Probe #8: Caspase centric probe (GVDVADGK; not fully specified; 5-FAM, CPQ2 quencher, PEG2, D-Lys-D-Lys-GC)
differentiation between healthy and Jo2 samples [5]: show contrast that is specific and sensitive to the Jo2 model

Probe #18: a Neutrophil elastase substrate (GAAPVGK; also: 5-FAM, CPQ2 quencher, PEG2-kk-GC, places not given here)
differential cleavage between COVID and healthy samples [8]: demonstrated contrast in both sets

O=c1[nH]c(-c2ccccc2O)nc2ccccc12 [HPQ, 2-(2″-hydroxyphenyl)-4(3H)-quinazolinone]
solubility in water [9]: strictly insoluble in water

Probe #84: a Furin substrate (GRVKRGLAGK; also: 5-FAM, CPQ2 quencher, PEG2-kk-GC, places not given here)
differential cleavage between COVID and healthy samples [8]: demonstrated contrast in both sets

Probe #462: a MMP8 substrate (GKKAKRNALG; also: FAM, K(CPQ2), PEG2, D-Lys-D-Lys-GC, places not given here)
differential cleavage between COVID and healthy samples [8]: demonstrated contrast in both sets

NCCc1ccc(S(=O)(=O)F)cc1 [AEBSF]
decrease of RFU signal by inhibitor, NASH ([6]; NASH plasma diluted 1/10 in PBS, Probe #102 6 uM): 65% | decrease of RFU signal by inhibitor, healthy ([6]; healthy plasma diluted 1/10 in PBS, Probe #102 6 uM): 60%

CN1CCN(c2nc(-c3ccc(C(=O)NC4(C(=O)NCC#N)CCCCC4)cc3)cs2)CC1 [Probe L006235]
effect of inhibitor on signal for NASH or healthy samples [6]: did not significantly decrease signal

Probe #428: FRET peptide probe of Table 1 ({FAM}-GDRRKKLTQG-{K(CPQ2)-PEG2′-dK-dK-Gly-Cys})
differentiation among healthy, regression and NASH samples [3]: can differentiate
